Measured values as given in US20240150377A1, “MODULATORS OF CYSTIC FIBROSIS TRANSMEMBRANE CONDUCTANCE REGULATOR” (VERTEX PHARMACEUTICALS INCORPORATED, priority 2020, published 2024).

Biological target: T1, CFTR (Homo sapiens, UniProt P13569, DEL508-508)
T1 construct: endogenous in cells; host or cells: primary human bronchial epithelial cells from CF subjects (F508del/MF-HBE), differentiated at air-liquid interface
Test: HBE2 assay: Ussing chamber assay of CFTR-mediated short-circuit currents
Assay type: cell-based
Conditions: F508del/MF-HBE cells, 18-24 hours, 20% human serum; for Emax: read-out: HBE2 Max activity (%)
How it was run: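 F508del/MF-HBE cultured >14 days at air-liquid interface, mounted in Ussing chambers; transepithelial short-circuit current recorded under voltage clamp (Vhold=0 mV) at 37 °C. CFTR-mediated ISC (μA/cm^2) taken as peak forskolin response relative to steady-state current after inhibition; corrector activity assessed this way.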

[1] = 3 μM corrector, with 44 nM potentiator

T1 sequence (P13569 with tags, fused parts or gaps DEL508-508): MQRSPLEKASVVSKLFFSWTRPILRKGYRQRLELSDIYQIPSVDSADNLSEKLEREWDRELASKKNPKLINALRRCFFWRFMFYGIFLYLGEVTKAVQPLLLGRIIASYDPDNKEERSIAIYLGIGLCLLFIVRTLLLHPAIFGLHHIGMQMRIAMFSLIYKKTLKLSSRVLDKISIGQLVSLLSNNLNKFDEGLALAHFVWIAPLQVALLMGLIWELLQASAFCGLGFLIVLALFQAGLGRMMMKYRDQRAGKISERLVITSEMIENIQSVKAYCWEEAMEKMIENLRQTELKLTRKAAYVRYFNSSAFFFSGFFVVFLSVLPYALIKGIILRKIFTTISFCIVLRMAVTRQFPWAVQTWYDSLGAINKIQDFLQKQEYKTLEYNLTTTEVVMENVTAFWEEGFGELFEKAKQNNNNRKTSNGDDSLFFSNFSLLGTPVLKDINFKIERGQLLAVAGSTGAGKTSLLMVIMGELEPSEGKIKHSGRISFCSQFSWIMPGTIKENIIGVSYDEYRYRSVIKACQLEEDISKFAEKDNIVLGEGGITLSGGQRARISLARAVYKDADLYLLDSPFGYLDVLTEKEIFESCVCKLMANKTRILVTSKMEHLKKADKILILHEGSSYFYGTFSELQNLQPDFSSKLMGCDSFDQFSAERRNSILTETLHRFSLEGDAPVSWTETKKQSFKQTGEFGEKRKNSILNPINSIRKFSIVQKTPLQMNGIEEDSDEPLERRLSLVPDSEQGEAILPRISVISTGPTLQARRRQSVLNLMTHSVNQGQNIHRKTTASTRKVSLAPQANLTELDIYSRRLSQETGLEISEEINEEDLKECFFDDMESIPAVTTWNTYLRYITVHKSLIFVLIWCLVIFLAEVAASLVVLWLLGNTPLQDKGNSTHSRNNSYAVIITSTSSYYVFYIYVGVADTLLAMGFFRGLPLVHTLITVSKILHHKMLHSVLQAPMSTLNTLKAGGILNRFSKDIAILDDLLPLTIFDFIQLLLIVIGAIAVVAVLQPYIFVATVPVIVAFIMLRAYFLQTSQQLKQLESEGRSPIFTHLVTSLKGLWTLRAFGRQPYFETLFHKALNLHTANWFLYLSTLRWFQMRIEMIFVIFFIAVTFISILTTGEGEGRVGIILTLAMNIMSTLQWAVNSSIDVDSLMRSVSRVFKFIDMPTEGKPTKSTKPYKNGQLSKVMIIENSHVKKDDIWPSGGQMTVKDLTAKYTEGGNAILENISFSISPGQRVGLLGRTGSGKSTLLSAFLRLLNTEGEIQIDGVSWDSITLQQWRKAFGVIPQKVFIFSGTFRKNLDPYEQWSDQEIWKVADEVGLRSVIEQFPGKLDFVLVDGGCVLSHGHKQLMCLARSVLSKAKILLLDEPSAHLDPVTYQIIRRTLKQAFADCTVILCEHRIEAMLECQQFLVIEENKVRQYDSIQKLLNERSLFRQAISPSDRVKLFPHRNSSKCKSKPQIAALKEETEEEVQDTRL

Compound | HBE2 Activity at 3 μM (%) (3 μM, with 44 nM potentiator) | HBE2 Activity at 3 μM (%) [1] | further results
Cc1cccc(C)c1-c1cc2nc(n1)NS(=O)(=O)c1cccc(c1)C(=O)N(Cc1cncc(N3CC4CC3(C)C4)n1)[C@H](CC(C)(C)C)CO2 [Compound 1691] | +++ (+++ is >60+) |  | 
Cc1cccc(C)c1-c1cc2nc(n1)NS(=O)(=O)c1cccc(c1)C(=O)N(Cc1cncc(N3CCCC[C@H]3C)n1)[C@H](COC1CC1)CO2 [Compound 1908] |  | +++ (+++ is >60+) | 
Cc1cccc(C)c1-c1cc2nc(n1)NS(=O)(=O)c1cccc(c1)C(=O)N(Cc1cccc(N(C)C(C)C)n1)[C@H](CCC(C)(C)C)CO2 [Compound 1790] |  | +++ (+++ is >60+) | 
Cc1cccc(C)c1-c1cc2nc(n1)NS(=O)(=O)c1cccc(c1)C(=O)N(Cc1coc(N(C)C3CCC3)n1)[C@H](CC(C)(C)C)CO2 [Compound 1318, (11R)-12-[[2-[Cyclobutyl(methyl)amino]oxazol-4-yl]methyl]-6-(2,6-dimethylphenyl)-11-(2,2-dimethylpropyl)-2,2-dioxo-9-oxa-2λ^6-thia-3,5,12,19-tetrazatricyclo[12.3.1.14,8]nonadeca-1(18),4(19),5,7,14,16-hexaen-13-one] | +++ (+++ is >60+) |  | 
Cc1cccc(C)c1-c1cc2nc(n1)NS(=O)(=O)c1cccc(c1)C(=O)N(Cc1cnc3cc(C(C)C)n(C)c3n1)[C@H](CCC(C)C)CO2 [Compound 1827] |  | +++ (+++ is >60+) | 
Cc1cccc(C)c1-c1cc2nc(n1)NS(=O)(=O)c1cccc(c1)C(=O)N(Cc1cncc(N(C)CC(C)C)n1)[C@H](CC1CC1)CO2 [Compound 1710] | +++ (+++ is >60+) |  | EC50 (with 44 nM potentiator): < 1000 nM; Emax (with 44 nM potentiator): > 60%
Cc1cccc(C)c1-c1cc2nc(n1)NS(=O)(=O)c1cccc(c1)C(=O)N(Cc1cncc(N3C(=O)CCC3C(C)C)n1)[C@H](CC(C)(C)C)CO2 (stereo in doubt) [Compound 1675] | +++ (+++ is >60+) |  | 
Cc1cccc(C)c1-c1cc2nc(n1)NS(=O)(=O)c1cccc(c1)C(=O)N(Cc1ncc(OC(C)C)cn1)[C@H]([C@@H](C)C(C)C)CO2 (stereo in doubt) [Compound 1573] | +++ (+++ is >60+) |  | 
Cc1cccc(C)c1-c1cc2nc(n1)NS(=O)(=O)c1cccc(c1)C(=O)N(Cc1ncc(N3CC(C)(C)C3)cn1)[C@H](CC(C)C)CO2 [Compound 1563] | +++ (+++ is >60+) |  | 
Cc1cccc(C)c1-c1cc2nc(n1)NS(=O)(=O)c1cccc(c1)C(=O)N(Cc1cc(C(C)C)n(C)n1)[C@H](CC(C)(C)C)CO2 [Compound 1413] | ++ (++ is 30-60%) |  | 
Cc1cccc(C)c1-c1cc2nc(n1)NS(=N)(=O)c1cccc(c1)C(=O)N(Cc1ncc(OC(C)C)cn1)[C@H](CC(C)(C)C)CO2 (stereo partly shown) [Compound 1575] | +++ (+++ is >60+) |  | 
COCCN(C)c1nc(CN2C(=O)c3cccc(c3)S(=O)(=O)Nc3nc(cc(-c4c(C)cccc4C)n3)OC[C@H]2CC(C)(C)C)co1 [Compound 1409] | +++ (+++ is >60+) |  | 
Cc1cccc(C)c1-c1cc2nc(n1)NS(=O)(=O)c1cccc(c1)C(=O)N(Cc1cncc(N(C)C3CCC3)n1)[C@H](C(C)(C)C)CO2 [Compound 1732] |  | +++ (+++ is >60+) | 
Cc1cccc(C)c1-c1cc2nc(n1)NS(=O)(=O)c1cccc(c1)C(=O)N(Cc1cncc(N3CC[C@@H]3C(C)C)n1)[C@H](CC1CCCCC1)CO2 (stereo in doubt) [Compound 1887] |  | +++ (+++ is >60+) | 
Cc1cccc(C)c1-c1cc2nc(n1)NS(=O)(=O)c1cccc(c1)C(=O)N(Cc1cncc(N3CCC[C@H]3C)n1)[C@H](CC1CC(C)(C)C1)CO2 [Compound 1900] |  | + (+ is <300)) | 
Cc1cccc(C)c1-c1cc2nc(n1)NS(=O)(=O)c1cccc(c1)C(=O)N(Cc1cccc(N3CC[C@H]3C)n1)[C@H](CC(C)(C)C)CO2 [Compound 1551] | +++ (+++ is >60+) |  | 
COC[C@@H]1CCN1c1cncc(CN2C(=O)c3cccc(c3)S(=O)(=O)Nc3nc(cc(-c4c(C)cccc4C)n3)OC[C@H]2CC(C)(C)F)n1 [Compound 1802] |  | +++ (+++ is >60+) | 
Cc1cccc(C)c1-c1cc2nc(n1)NS(=O)(=O)c1cccc(c1)C(=O)N(Cc1cncc(N(C)C3CC4CCC43)n1)[C@H](CC(C)(C)C)CO2 (stereo partly shown) [Compound 1784] |  | +++ (+++ is >60+) | 
Cc1cccc(C)c1-c1cc2nc(n1)NS(=O)(=O)c1cccc(c1)C(=O)N(Cc1cncc(N3CCCC3C(=O)N(C)C)n1)[C@H](CC(C)(C)C)CO2 (stereo partly shown) [Compound 1660] | +++ (+++ is >60+) |  | 
Cc1cccc(C)c1-c1cc2nc(n1)NS(=O)(=O)c1cccc(c1)C(=O)N(Cc1cncc(N3CCC[C@@H]4COC[C@@H]43)n1)[C@H](CC(C)(C)C)CO2 [Compound 1680] | +++ (+++ is >60+) |  | 
CNC(=O)OCCN(C)c1cncc(CN2C(=O)c3cccc(c3)S(=O)(=O)Nc3nc(cc(-c4c(C)cccc4C)n3)OC[C@H]2CC(C)(C)C)n1 [Compound 1666] | +++ (+++ is >60+) |  | 
Cc1cccc(C)c1-c1cc2nc(n1)NS(=O)(=O)c1cccc(c1)C(=O)N(Cc1cncc(N(C)C3CCC3)n1)[C@H](CC1(C(F)(F)F)CC1)CO2 [Compound 1688] | +++ (+++ is >60+) |  | EC50 (with 44 nM potentiator): < 1000 nM; Emax (with 44 nM potentiator): > 60%
CCN(CCOC)c1cncc(CN2C(=O)c3cccc(c3)S(=O)(=O)Nc3nc(cc(-c4c(C)cccc4C)n3)OC[C@H]2CCC(C)(C)C)n1 [Compound 1811] |  | +++ (+++ is >60+) | 
Cc1cccc(C)c1-c1cc2nc(n1)NS(=O)(=O)c1cccc(c1)C(=O)N(Cc1cncc(N(C)CC(C)(C)F)n1)[C@H](CCC(C)(C)C)CO2 [Compound 1818] |  | +++ (+++ is >60+) | 
Cc1cccc(C)c1-c1cc2nc(n1)NS(=O)(=O)c1cccc(c1)C(=O)N(Cc1cnc3cc(C(C)C)n(C)c3n1)[C@H](CC(C)(C)C)CO2 [Compound 1756] |  | +++ (+++ is >60+) | 

Further lines, with some results ahead:

HBE2 Activity at 3 μM (%) (3 μM, with 44 nM potentiator) | HBE2 Activity at 3 μM (%) [1] | Compound | further results
 | +++ (+++ is >60+) | Cc1cccc(C)c1-c1cc2nc(n1)NS(=O)(=O)c1cccc(c1)C(=O)N(Cc1cncc(N3CC[C@H]3C(C)C)n1)[C@H](CCC(C)(C)C)CO2 [Compound 1797] | 
 | +++ (+++ is >60+) | CCN(c1cncc(CN2C(=O)c3cccc(c3)S(=O)(=O)Nc3nc(cc(-c4c(C)cccc4C)n3)OC[C@H]2CCC(C)(C)C)n1)C(C)C [Compound 1850] | 
+++ (+++ is >60+) |  | COc1cc(CN2C(=O)c3cccc(c3)S(=O)(=O)Nc3nc(cc(-c4c(C)cccc4C)n3)OC[C@H]2CC(C)(C)C)nc(N(C)C2CCC2)c1 [Compound 1700] | 
 | +++ (+++ is >60+) | Cc1cccc(C)c1-c1cc2nc(n1)NS(=O)(=O)c1cccc(c1)C(=O)N(Cc1cncc(N3CCC[C@H]3C(C)C)n1)[C@H](CCC(C)(C)C)CO2 [Compound 1716] | EC50 (corrector at a range of concentrations with 44 nM potentiator): < 1000 nM; Emax (with 44 nM potentiator): > 60%
 | +++ (+++ is >60+) | Cc1cccc(C)c1-c1cc2nc(n1)NS(=O)(=O)c1cccc(c1)C(=O)N(Cc1cnc3cc(C(C)C)n(C)c3n1)[C@H](CC1CC1)CO2 [Compound 1820] | 
 | +++ (+++ is >60+) | Cc1cccc(C)c1-c1cc2nc(n1)NS(=O)(=O)c1cccc(c1)C(=O)N(Cc1cncc(N(C)C3CCC3)n1)[C@H](COC(C)C)CO2 [Compound 1324, (11R)-12-[[6-[Cyclobutyl(methyl)amino]pyrazin-2-yl]methyl]-6-(2,6-dimethylphenyl)-11-(isopropoxymethyl)-2,2-dioxo-9-oxa-2λ^6-thia-3,5,12,19-tetrazatricyclo[12.3.1.14,8]nonadeca-1(18),4(19),5,7,14,16-hexaen-13-one] | 
 | +++ (+++ is >60+) | Cc1cccc(C)c1-c1cc2nc(n1)NS(=O)(=O)c1cccc(c1)C(=O)N(Cc1cncc(N(C)C3CCC3)n1)[C@]1(CCC(C)(C)C1)CO2 (single isomer, unassigned) [Compound 1325, 12-[[6-[cyclobutyl(methyl)amino]pyrazin-2-yl]methyl]-6-(2,6-dimethylphenyl)-1′,1′-dimethyl-2,2-dioxo-spiro[9-oxa-2λ^6-thia-3,5,12,19-tetrazatricyclo[12.3.1.14,8]nonadeca-1(18),4(19),5,7,14,16-hexaene-11,3′-cyclopentane]-13-one] | 
 | +++ (+++ is >60+) | Cc1cccc(C)c1-c1cc2nc(n1)NS(=O)(=O)c1cccc(c1)C(=O)N(Cc1cncc(N3CCCC3C(C)C)n1)[C@H](CC1CCCCC1)CO2 (stereo partly shown) [Compound 1824] | 
 | +++ (+++ is >60+) | Cc1cccc(C)c1-c1cc2nc(n1)NS(=O)(=O)c1cccc(c1)C(=O)N(Cc1cncc(N(C)C3CCC3)c1)[C@H](CC(C)(C)C)CO2 [Compound 1927] | 
 | +++ (+++ is >60+) | Cc1cccc(C)c1-c1cc2nc(n1)NS(=O)(=O)c1cccc(c1)C(=O)N(Cc1cncc(N3CCC4CCC43)n1)[C@H](COC1CC1)CO2 (stereo in doubt) [Compound 1909] | 
+++ (+++ is >60+) |  | CO[C@H]1C[C@H](CN(C)c2cncc(CN3C(=O)c4cccc(c4)S(=O)(=O)Nc4nc(cc(-c5c(C)cccc5C)n4)OC[C@H]3CC(C)(C)C)n2)C1 (stereo in doubt) [Compound 1632] | EC50 (with 44 nM potentiator): < 1000 nM; Emax (with 44 nM potentiator): > 60%
 | +++ (+++ is >60+) | Cc1cccc(C)c1-c1cc2nc(n1)NS(=O)(=O)c1cccc(c1)C(=O)N(Cc1cncc(N3CC[C@H]3COC(C)C)n1)[C@H](CCC(C)(C)C)CO2 [Compound 1868] | 
+++ (+++ is >60+) |  | Cc1cccc(C)c1-c1cc2nc(n1)NS(=O)(=O)c1cccc(c1)C(=O)N(Cc1cncc(N3CCOC4CCCC43)n1)[C@H](CC(C)(C)C)CO2 (stereo partly shown) [Compound 1692] | 
